One experiment has as its target T1, 3-hydroxy-3-methylglutaryl-coenzyme A reductase (Homo sapiens, UniProt P04035).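 Also: enzyme inhibition assay of HMG-CoA reductase using radiolabeled [14C]HMG-CoA as substrate; in other assays of this panel Not Active means under 50% inhibition at 10 µM.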
T1 sequence (P04035 whole entry): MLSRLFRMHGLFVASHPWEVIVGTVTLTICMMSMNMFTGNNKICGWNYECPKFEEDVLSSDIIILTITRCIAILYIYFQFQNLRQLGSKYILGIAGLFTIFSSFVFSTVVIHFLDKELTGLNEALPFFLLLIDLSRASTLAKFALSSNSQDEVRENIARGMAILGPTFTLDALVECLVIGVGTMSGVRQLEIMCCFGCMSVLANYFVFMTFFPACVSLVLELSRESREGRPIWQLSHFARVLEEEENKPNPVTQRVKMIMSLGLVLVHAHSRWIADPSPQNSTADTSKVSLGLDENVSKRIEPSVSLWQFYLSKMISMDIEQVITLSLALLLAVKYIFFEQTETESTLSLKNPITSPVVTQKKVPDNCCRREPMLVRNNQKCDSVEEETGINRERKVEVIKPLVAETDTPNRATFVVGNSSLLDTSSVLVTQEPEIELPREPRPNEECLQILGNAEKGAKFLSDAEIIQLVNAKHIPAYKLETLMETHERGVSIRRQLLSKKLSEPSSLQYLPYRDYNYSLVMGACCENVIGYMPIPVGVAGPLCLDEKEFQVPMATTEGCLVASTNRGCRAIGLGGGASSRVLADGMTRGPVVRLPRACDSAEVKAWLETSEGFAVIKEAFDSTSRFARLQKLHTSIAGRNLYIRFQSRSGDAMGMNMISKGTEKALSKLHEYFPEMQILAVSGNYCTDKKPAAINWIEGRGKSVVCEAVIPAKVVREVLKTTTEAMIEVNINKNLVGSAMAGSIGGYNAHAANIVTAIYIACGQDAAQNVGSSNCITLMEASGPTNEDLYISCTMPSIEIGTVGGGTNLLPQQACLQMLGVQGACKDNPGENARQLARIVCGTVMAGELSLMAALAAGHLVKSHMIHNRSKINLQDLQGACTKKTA
On the set-up: species or system Escherichia coli.
Details: not given
Sequence of C-C chemokine receptor type 2 (P41597 whole entry): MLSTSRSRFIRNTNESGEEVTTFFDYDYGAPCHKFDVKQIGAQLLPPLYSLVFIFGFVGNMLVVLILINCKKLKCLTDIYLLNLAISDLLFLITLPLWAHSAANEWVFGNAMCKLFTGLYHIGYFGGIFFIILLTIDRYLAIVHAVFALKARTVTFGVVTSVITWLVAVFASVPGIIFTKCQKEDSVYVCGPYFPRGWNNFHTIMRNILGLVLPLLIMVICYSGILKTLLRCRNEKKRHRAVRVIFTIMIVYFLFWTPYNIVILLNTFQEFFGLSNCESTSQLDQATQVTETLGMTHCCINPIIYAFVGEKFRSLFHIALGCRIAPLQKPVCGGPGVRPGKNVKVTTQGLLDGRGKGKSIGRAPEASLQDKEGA
Sequence of 5-hydroxytryptamine receptor 2B (P41595 whole entry): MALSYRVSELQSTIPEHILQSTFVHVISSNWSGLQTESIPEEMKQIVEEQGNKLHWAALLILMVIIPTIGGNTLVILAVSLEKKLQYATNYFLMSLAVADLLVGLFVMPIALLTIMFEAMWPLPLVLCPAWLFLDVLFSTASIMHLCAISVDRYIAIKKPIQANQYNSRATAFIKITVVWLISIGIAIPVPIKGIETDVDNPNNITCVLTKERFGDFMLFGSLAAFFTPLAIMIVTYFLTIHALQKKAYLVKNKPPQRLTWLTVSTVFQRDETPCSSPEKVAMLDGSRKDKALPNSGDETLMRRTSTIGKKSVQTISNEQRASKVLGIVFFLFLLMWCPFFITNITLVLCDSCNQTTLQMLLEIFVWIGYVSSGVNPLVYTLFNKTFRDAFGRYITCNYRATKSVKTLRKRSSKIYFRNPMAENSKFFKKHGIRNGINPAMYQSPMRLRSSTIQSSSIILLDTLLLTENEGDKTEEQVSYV
In the case of `Nc1ccn([C@@H]2CS[C@H](CO)O2)c(=O)n1` [LAMIVUDINE], the IC50 result is “Not Active”.

As to `O=S(=O)([O-])CCS.[Na+]` [MESNA], the IC50 result is “Not Active”.

Consider `C#C[C@]1(O)CC[C@H]2[C@@H]3CCc4cc(OC)ccc4[C@H]3CC[C@@]21C` [MESTRANOL], for which the IC50 result is “Not Active”.

Consider `CC(=O)Nc1cccc(O)c1` [METACETAMOL], for which the IC50 result is “Not Active”.

As for `Cc1ncc([N+](=O)[O-])n1CCO` [METRONIDAZOLE], the IC50 entry is given as “Not Active”.

For the compound `CC(C)(C(=O)c1cccnc1)c1cccnc1` [METYRAPONE], the IC50 entry is reported as “Not Active”.

As for `Oc1ccc(OCc2ccccc2)cc1` [MONOBENZONE], the IC50 entry is “Not Active”.

`CC(C)(Oc1ccc(C2CCCc3ccccc32)cc1)C(=O)O` (stereo not drawn) [NAFENOPIN]: the IC50 result is reported as “Not Active”.

The next experiment concerns the target C-C chemokine receptor type 2 (Homo sapiens, UniProt P41597). It counts as cell membranes, CHO-K1, Membrane. Conditions: cho-k1. Also: in other assays of this panel Not Active means under 50% inhibition at 10 µM.
Consider `Nc1ccn([C@@H]2CS[C@H](CO)O2)c(=O)n1` [LAMIVUDINE], for which the IC50 result was “Not Active”.

With `O=S(=O)([O-])CCS.[Na+]` [MESNA], the IC50 entry is “Not Active”.

As to `C#C[C@]1(O)CC[C@H]2[C@@H]3CCc4cc(OC)ccc4[C@H]3CC[C@@]21C` [MESTRANOL], the IC50 entry is “Not Active”.

`CC(=O)Nc1cccc(O)c1` [METACETAMOL]: the IC50 result is recorded as “Not Active”.

As to `Cc1ncc([N+](=O)[O-])n1CCO` [METRONIDAZOLE], the IC50 entry is “Not Active”.

For the compound `CC(C)(C(=O)c1cccnc1)c1cccnc1` [METYRAPONE], the IC50 result is listed as “Not Active”.

Take `Oc1ccc(OCc2ccccc2)cc1` [MONOBENZONE]: the IC50 result is “Not Active”.

In the case of `CC(C)(Oc1ccc(C2CCCc3ccccc32)cc1)C(=O)O` (stereo not drawn) [NAFENOPIN], the IC50 entry is on record as “Not Active”.

Test system in the next experiment: not listed separately
Description: DRUGMATRIX: Atrial Natriuretic Factor (ANF) radioligand binding (ligand: [125I] ANF (rat)). Conditions: Not Active = under 50% inhibition at 10 µM. Type of experiment: cell membranes, Cavia porcellus, Dunkin-Hartley, Adrenal gland, Membrane.
For the compound `Nc1ccn([C@@H]2CS[C@H](CO)O2)c(=O)n1` [LAMIVUDINE], the IC50 result is reported as “Not Active” and the Ki entry is “Not Active”.

Consider `O=S(=O)([O-])CCS.[Na+]` [MESNA], for which the IC50 entry is listed as “Not Active” and the Ki entry is recorded as “Not Active”.

For `C#C[C@]1(O)CC[C@H]2[C@@H]3CCc4cc(OC)ccc4[C@H]3CC[C@@]21C` [MESTRANOL], the IC50 result is recorded as “Not Active” and the Ki result is “Not Active”.

In the case of `CC(=O)Nc1cccc(O)c1` [METACETAMOL], the IC50 result is on record as “Not Active” and the Ki result is “Not Active”.

As for `Cc1ncc([N+](=O)[O-])n1CCO` [METRONIDAZOLE], the IC50 result was “Not Active” and the Ki entry was “Not Active”.

Take `CC(C)(C(=O)c1cccnc1)c1cccnc1` [METYRAPONE]: the IC50 result is recorded as “Not Active” and the Ki entry is on record as “Not Active”.

With `Oc1ccc(OCc2ccccc2)cc1` [MONOBENZONE], the IC50 entry is given as “Not Active” and the Ki entry is recorded as “Not Active”.

Consider `CC(C)(Oc1ccc(C2CCCc3ccccc32)cc1)C(=O)O` (stereo not drawn) [NAFENOPIN], for which the IC50 result is given as “Not Active” and the Ki result is listed as “Not Active”.

Test system in another experiment: not listed separately
Description: DRUGMATRIX: GABAA, Flunitrazepam, Central radioligand binding (ligand: [3H] Flunitrazepam). Conditions: Not Active = under 50% inhibition at 10 µM. It counts as cell membranes, Rattus norvegicus, Wistar, Brain, Membrane.
As for `Nc1ccn([C@@H]2CS[C@H](CO)O2)c(=O)n1` [LAMIVUDINE], the IC50 result was “Not Active” and the Ki result is “Not Active”.

For `O=S(=O)([O-])CCS.[Na+]` [MESNA], the IC50 entry was “Not Active” and the Ki entry is on record as “Not Active”.

With `C#C[C@]1(O)CC[C@H]2[C@@H]3CCc4cc(OC)ccc4[C@H]3CC[C@@]21C` [MESTRANOL], the IC50 result is recorded as “Not Active” and the Ki entry was “Not Active”.

As for `CC(=O)Nc1cccc(O)c1` [METACETAMOL], the IC50 entry was “Not Active” and the Ki entry is “Not Active”.

In the case of `Cc1ncc([N+](=O)[O-])n1CCO` [METRONIDAZOLE], the IC50 result is on record as “Not Active” and the Ki entry is given as “Not Active”.

In the case of `CC(C)(C(=O)c1cccnc1)c1cccnc1` [METYRAPONE], the IC50 entry is on record as “Not Active” and the Ki entry is recorded as “Not Active”.

Turning to `Oc1ccc(OCc2ccccc2)cc1` [MONOBENZONE], the IC50 result was “Not Active” and the Ki entry is on record as “Not Active”.

Take `CC(C)(Oc1ccc(C2CCCc3ccccc32)cc1)C(=O)O` (stereo not drawn) [NAFENOPIN]: the IC50 result is “Not Active” and the Ki entry is recorded as “Not Active”.

Another experiment concerns the target 5-hydroxytryptamine receptor 2B (Homo sapiens, UniProt P41595). It counts as cell membranes, CHO-K1, Membrane. The note with it: cho-k1. Also: in other assays of this panel Not Active means under 50% inhibition at 10 µM.
With `Nc1ccn([C@@H]2CS[C@H](CO)O2)c(=O)n1` [LAMIVUDINE], the IC50 entry is “Not Active”.

Consider `O=S(=O)([O-])CCS.[Na+]` [MESNA], for which the IC50 result is recorded as “Not Active”.

`C#C[C@]1(O)CC[C@H]2[C@@H]3CCc4cc(OC)ccc4[C@H]3CC[C@@]21C` [MESTRANOL]: the IC50 entry is “Not Active”.

For the compound `CC(=O)Nc1cccc(O)c1` [METACETAMOL], the IC50 result is “Not Active”.

`Cc1ncc([N+](=O)[O-])n1CCO` [METRONIDAZOLE]: the IC50 entry is given as “Not Active”.

Take `CC(C)(C(=O)c1cccnc1)c1cccnc1` [METYRAPONE]: the IC50 result was “Not Active”.

With `Oc1ccc(OCc2ccccc2)cc1` [MONOBENZONE], the IC50 result is “Not Active”.

In the case of `CC(C)(Oc1ccc(C2CCCc3ccccc32)cc1)C(=O)O` (stereo not drawn) [NAFENOPIN], the IC50 entry is given as “Not Active”.

Test system in a further experiment: not listed separately
The experiment is described as follows: DRUGMATRIX: Glutamate, Kainate radioligand binding (ligand: [3H] Kainic acid). It counts as cell membranes, Rattus norvegicus, Wistar, Brain, Membrane. The note with it: Not Active = under 50% inhibition at 10 µM.
For the compound `Nc1ccn([C@@H]2CS[C@H](CO)O2)c(=O)n1` [LAMIVUDINE], the IC50 result is “Not Active” and the Ki result was “Not Active”.

In the case of `O=S(=O)([O-])CCS.[Na+]` [MESNA], the IC50 entry was “Not Active” and the Ki result is “Not Active”.

Take `C#C[C@]1(O)CC[C@H]2[C@@H]3CCc4cc(OC)ccc4[C@H]3CC[C@@]21C` [MESTRANOL]: the IC50 entry is listed as “Not Active” and the Ki result is “Not Active”.

For `CC(=O)Nc1cccc(O)c1` [METACETAMOL], the IC50 result is “Not Active” and the Ki result was “Not Active”.

Consider `Cc1ncc([N+](=O)[O-])n1CCO` [METRONIDAZOLE], for which the IC50 result was “Not Active” and the Ki entry is “Not Active”.

As for `CC(C)(C(=O)c1cccnc1)c1cccnc1` [METYRAPONE], the IC50 entry was “Not Active” and the Ki entry is “Not Active”.

Regarding `Oc1ccc(OCc2ccccc2)cc1` [MONOBENZONE], the IC50 result is “Not Active” and the Ki result is recorded as “Not Active”.

Turning to `CC(C)(Oc1ccc(C2CCCc3ccccc32)cc1)C(=O)O` (stereo not drawn) [NAFENOPIN], the IC50 result is “Not Active” and the Ki result is “Not Active”.

Test system in another experiment: not listed separately
Description: DRUGMATRIX: Glutamate, AMPA radioligand binding (ligand: [3H] AMPA). Type of experiment: cell membranes, Rattus norvegicus, Wistar, Cerebral cortex, Membrane. The note with it: Not Active = under 50% inhibition at 10 µM.
`Nc1ccn([C@@H]2CS[C@H](CO)O2)c(=O)n1` [LAMIVUDINE]: the IC50 result is recorded as “Not Active” and the Ki result is “Not Active”.

In the case of `O=S(=O)([O-])CCS.[Na+]` [MESNA], the IC50 entry was “Not Active” and the Ki entry was “Not Active”.

Take `C#C[C@]1(O)CC[C@H]2[C@@H]3CCc4cc(OC)ccc4[C@H]3CC[C@@]21C` [MESTRANOL]: the IC50 result is listed as “Not Active” and the Ki result is reported as “Not Active”.

As to `CC(=O)Nc1cccc(O)c1` [METACETAMOL], the IC50 entry was “Not Active” and the Ki result is given as “Not Active”.

For `Cc1ncc([N+](=O)[O-])n1CCO` [METRONIDAZOLE], the IC50 result is “Not Active” and the Ki entry was “Not Active”.

For the compound `CC(C)(C(=O)c1cccnc1)c1cccnc1` [METYRAPONE], the IC50 entry was “Not Active” and the Ki result is listed as “Not Active”.

Take `Oc1ccc(OCc2ccccc2)cc1` [MONOBENZONE]: the IC50 result is “Not Active” and the Ki result is given as “Not Active”.

Take `CC(C)(Oc1ccc(C2CCCc3ccccc32)cc1)C(=O)O` (stereo not drawn) [NAFENOPIN]: the IC50 result is given as “Not Active” and the Ki result was “Not Active”.

Source of the values: ChEMBL document CHEMBL1909046, “DrugMatrix in vitro pharmacology data”.
